Data set [1] is described as follows: Kinetic evaluation of [3+2] cycloaddition of cyclooctyne probes with 2-azidoethanol (1H NMR). To be noted: HOCH2CH2N3, CD3CN/PBS (55:45), 22° C. Format: physicochemical. As to the method:
(§1) Stock solutions of cyclooctynes 3a and 3b (50 mM), benzyl azide (500 mM) and 2-azidoethanol (500 mM) were made in either CD3CN or a 55:45 mixture of CD3CN and deuterated Dulbecco's phosphate-buffered saline (pH 7.4, made with D2O). Gentle heating and/or sonication in a H2O bath was required to fully dissolve 3a and 3b. An NMR tube was charged with 450 μL of either 3a or 3b, and 50 μL of either benzyl azide or 2-azidoethanol, and the reaction was monitored over time using ^1H NMR spectroscopy.
(§2) In the case of the reactions of 3a and 3b with benzyl azide, the kinetic data were derived by monitoring the change in integration of resonances corresponding to the benzylic protons in benzyl azide (δ˜4.2 ppm) compared to the corresponding resonances of the triazole products (δ ˜5.0 to 5.5 ppm). […]
(§3) Second-order rate constants for the reaction were determined by plotting 1/[benzyl azide] versus time in the case of the reactions of 3a and 3b with benzyl azide and by plotting 1/[3a] versus time or 1/[3b] versus time in the case of the reactions of 3a and 3b with 2-azidoethanol, and subsequent analysis by linear regression. Second-order rate constants correspond to one half of the determined slope (Table 1). […]

A short description of data set [2]: Kinetic evaluation of [3+2] cycloaddition of cyclooctyne probes with benzyl azide (1H NMR). In kind it is physicochemical. As to conditions: PhCH2N3, CD3CN, 22° C. As to the method:
as §1, §2, §3

Data set [3] in a line: Stability of cyclooctyne 3 to acid, base and biological nucleophiles. In kind it is physicochemical. As to the method: [drawing 31] by Reese and Shaw. Reese and Shaw (1970) Chem. Comm. 1172-1173. Briefly, compound 1 (Skattebol and Solomon, supra) was treated with silver perchlorate to effect electrocyclic ring opening to the trans-allylic cation, which was captured with methyl hydroxymethylbenzoate to afford bromo-trans-cyclooctene 2. Base-mediated elimination of the vinyl bromide followed by saponification yielded versatile intermediate 3, to which any biological probe can be attached. Finally, compound 3 was coupled to biotin analog 4 (Wilbur et al. (1996) Bioconj. Chem. 7:689-702) bearing a PEG linker, providing target 5. Cyclooctyne 3 was stable to mild acid (0.5 N HCl for 30 min), base (0.8 M NaOMe for 30 min), and prolonged exposure to biological nucleophiles such as thiols (120 mM 2-mercaptoethanol for 12 h).

The test system of data set [4] is Jurkat cells.
In data set [5] the target is T1, azide-labeled GlyCAM-Ig (Mus musculus, UniProt Q02596).
T1 construct: made in house; host or cells: CHO cells grown with Ac4ManNAz
T1 sequence (Q02596 20-151): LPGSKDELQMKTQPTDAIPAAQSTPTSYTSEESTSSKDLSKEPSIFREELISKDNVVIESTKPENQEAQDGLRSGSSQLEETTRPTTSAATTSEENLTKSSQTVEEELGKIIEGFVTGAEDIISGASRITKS
The data set is described as follows: Western blot analysis of azide-labeled GlyCAM-Ig. As to conditions: for labeling (biotinylation) of GlyCAM-Ig modified with SiaNAz: 250 μM probe alone, overnight at rt, no copper catalysis. Format: biochemical. As to the method:
For Western blot analysis of azide-labeled and unlabeled GlyCAM-Ig, samples were incubated with 5 (250 μM final concentration in PBS, pH 7.4 containing 0.7% DMF), 6 (250 μM final concentration in PBS, pH 7.4 containing either 0.7% DMF) or left untreated for 12 h. To verify that 6 could react with azide-labeled GlyCAM-Ig via copper-mediated [3+2] cycloaddition, a modified version of the method reported by Speers and Cravatt was employed. Speers and Cravatt (2004) Chem. Biol. 11:535-46. Briefly, GlyCAM-Ig samples (in PBS, pH 7.4 containing 0.7% DMF) were incubated with 250 μM 6, 2.5 mM TCEP, 250 μM tris-triazolyl ligand (from a 1.7 mM stock in 1:4 DMSO:tert-butanol), and 2.5 mM CuSO4. Samples were vortexed and allowed to react at rt for 12 h. Prior to electrophoresis, samples were incubated with an equal volume of 100 mM 2-azidoethanol in 2×SDS-PAGE loading buffer for 8 h at rt (to quench unreacted 5 or 6). The quenched samples were boiled for 3 min and loaded onto precast polyacrylamide gels. After electrophoresis, the samples were electroblotted to nitrocellulose membrane. The membrane was blocked using 5% BSA in PBS (pH 7.4, containing 0.05% Tween 20 (blocking buffer A) for 1 h at rt, then incubated with a solution of blocking buffer A containing HRP-α-biotin (1:250,000 dilution, 1 h at rt). The membrane was washed, and detection of membrane-bound anti-biotin-HRP was accomplished by chemiluminescence. Following detection, the membrane was rinsed with PBS (pH 7.4) containing 0.05% Tween (PBS-T) and placed in stripping buffer (15 min at RT) to remove bound anti-biotin Ig. The membrane was thoroughly rinsed with PBS-T and probed for residual anti-biotin signal by chemiluminescence.
The membrane was washed and re-blocked with 5% low-fat dry powdered milk (blocking buffer B) for 1 h at rt. The membrane was then incubated with HRP-α-Ig (1:5000 in blocking buffer B) for 1 h at rt. The membrane was washed again with PBS-T, and detection of membrane bound anti-human Ig was accomplished as for peroxidase-conjugated anti-biotin. Control samples were treated in an identical manner, except that specific reagents were replaced by buffer where appropriate.
FIG. 2. Labeling of azide-modified GlyCAM-Ig with alkyne probes. Purified GlyCAM-Ig was treated with buffer (−), 250 μM 5, or 250 μM 6 alone or in the presence (cat) of CuSO4, TCEP, and a triazolyl ligand, overnight at rt. Reaction mixtures were quenched with 2-azidoethanol and analyzed by Western blot probing with HRP-α-biotin (upper panel). The blot was then stripped and reprobed with HRP-α-Ig (lower panel).
(In general: In western blotting, separated proteins are transferred to a membrane and probed.)

In data set [6] the test system is Jurkat cells. The data set is described as follows: Cell surface azide labeling and detection, Jurkat cells, FITC-avidin flow cytometry. Format: cell-based, human. As to the method: Jurkat cells were seeded at a density of 1.5-2.0×10^5 cells/mL and incubated for 3 d in untreated media or media containing various concentrations of Ac4ManNAz. […] Cells were then incubated with 5 or a biotinylated phosphine probe (Vocadlo et al. (2003) Proc. Natl. Acad. Sci. U.S.A. 100:9116-21) in labeling buffer containing 2.8% DMF or labeling buffer plus 2.8% DMF alone. […] Following a 10-min incubation on ice (in the dark), cells were washed with 200 μL of cold labeling buffer and the FITC-avidin staining procedure was repeated.
FIGS. 3A and 3B. Cell surface labeling with compound 5. Jurkat cells were incubated in the presence (+Az) or absence (−Az) of 25 μM Ac4ManNAz for 3 d. FIG. 3A. The cells were reacted with various concentrations of 5 for 1 h at rt and treated with FITC-avidin; mean fluorescence intensity (MFI) was determined by flow cytometry. FIG. 3B. The cells were incubated with 250 μM 5 for various durations at rt and analyzed as in A. C. The cells were incubated with 100 μM probe for 1 h at rt and analyzed as in A. Error bars represent the standard deviation from three replicates. AU=arbitrary fluorescence units.

In the case of `O=C(O)c1ccc(CC2C#CCCCCC2)cc1` (stereo not drawn) [Compound 3a, 4-Cyclooct-2-ynylmethylbenzoic acid], the “k, second-order rate constant for the [3 + 2] cycloaddition” value in data set [1] stood at 0.0011 M⁻¹ s⁻¹; in data set [2], 0.0012 M⁻¹ s⁻¹.

Consider `O=C(O)c1ccc(COC2C#CCCCCC2)cc1` (stereo not drawn) [Compound 3], for which the “stability to biological nucleophiles such as thiols” value in data set [3] (120 mM 2-mercaptoethanol for 12 h) was “stable”. Also, the “stability to mild acid” value in data set [3] (0.5 N HCl for 30 min) is recorded as “stable”. The stability to base result in data set [3] (0.8 M NaOMe for 30 min) is given as “stable”.

Turning to `O=C(CCCC[C@@H]1SC[C@@H]2NC(=O)N[C@@H]21)NCCCOCCOCCOCCCNC(=O)COC1CCC#CC(F)(F)CC1` (stereo partly drawn) [DIFO-biotin], the “labeling of azide-containing membrane-associated glycans in live cells” value in data set [4] (0 or 25 μM Ac4ManNAz 3 days, probe 1 h, FITC-avidin) is given as “selectively label”. Moreover, the “sensitivity of azide detection compared to a nonfluorinated cyclooctyne or a phosphine capable of Staudinger ligation” value in data set [4] (100 μM probes, 1 h) is “much higher”.

For `O=C(CCCC[C@@H]1SC[C@@H]2NC(=O)N[C@@H]21)NCCCOCCOCCOCCCNC(=O)c1ccc(COC2C#CCCCCC2)cc1` (stereo partly drawn) [Compound 5], the “labeling (biotinylation) of GlyCAM-Ig modified with SiaNAz” value in data set [5] (HRP-α-biotin blot) is listed as “Robust biotinylation”. Besides, in data set [5] (250 μM probe overnight, HRP-α-biotin blot), the “labeling of native GlyCAM-Ig lacking azides” value is “no background labeling”. Moreover, the “dependence of cell surface reaction on incubation time” value in data set [6] (Jurkat +Az, 250 μM probe for various durations at rt) was “dependent on duration of incubation”. For the same compound, the “effects on cell viability” value in data set [6] (Jurkat cells treated with probe) is given as “No negative effects”. Also, the “labeling of cells lacking azides” value in data set [6] (Jurkat grown without Ac4ManNAz) is recorded as “No detectable labeling”. The “fluorescence of cells displaying azides upon treatment with the cyclooctyne probe” value in data set [6] (Jurkat, 25 μM Ac4ManNAz 3 d, various concentrations of probe, rt, FITC-avidin) is recorded as “dose-dependent increase in fluorescence”.

Regarding `C#CCCC(=O)NCCCOCCOCCOCCCNC(=O)CCCC[C@@H]1SC[C@@H]2NC(=O)N[C@@H]21` [Compound 6], the “labeling (biotinylation) of GlyCAM-Ig modified with SiaNAz” value in data set [5] (HRP-α-biotin blot) was “no glycoprotein labeling”. In addition, the “labeling of the azide-modified glycoprotein with copper catalysis” value in data set [5] (250 μM probe plus CuSO4, TCEP and a triazolyl ligand) is listed as “facile labeling”. Further, the “anti-IgG immunoreactivity of labeled azide-modified GlyCAM-Ig” value in data set [5] (in the presence of copper, blot reprobed with HRP-α-IgG) was “consistently diminished”.

Consider `O=C(O)c1ccc(CC2(F)C#CCCCCC2)cc1` (stereo not drawn) [Compound 3b, 4-(1-Fluoro-cyclooct-2-ynylmethyl)benzoic acid], for which the “k, second-order rate constant for the [3 + 2] cycloaddition” value in data set [1] worked out at 0.004 M⁻¹ s⁻¹; in data set [2] it was 0.0042 M⁻¹ s⁻¹.

The values are drawn from patent publication US10434111B2, “Compositions and methods for modification of biomolecules” (THE REGENTS OF THE UNIVERSITY OF CALIFORNIA, priority 2004, dated 2019).
